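Method: 48-hour compound exposure of cells in 96-well plates, five concentrations, linear interpolation of endpoints. Definition used: TGI = concentration required for complete inhibition of growth.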
How the values were obtained:
Assay in all cases: inhibition of tumour cell growth, NCI panel, 48 h
[1] = test system: 786-0 renal
[2] = test system: A498 renal
[3] = test system: A549 NSCLC
[4] = test system: ACHN renal
[5] = test system: BT-549 breast
[6] = test system: CAKI-1 renal
[7] = test system: CCRF-CEM leukemia
[8] = test system: COLO 205 colon
[9] = test system: DU-145 prostate
[10] = test system: EKVX NSCLC
[11] = test system: HCC-2998 colon
[12] = test system: HCT-116 colon
[13] = test system: HCT-15 colon
[14] = test system: HL-60(TB) leukemia
[15] = test system: HOP-62 NSCLC
[16] = test system: HOP-92 NSCLC
[17] = test system: HS 578T breast
[18] = test system: HT29 colon
[19] = test system: IGROV1 ovarian
[20] = test system: K-562 leukemia
[21] = test system: KM12 colon
[22] = test system: LOX IMVI melanoma
[23] = test system: M14 melanoma
[24] = test system: MALME-3M melanoma
[25] = test system: MCF7 breast
[26] = test system: MDA-MB-231 breast
[27] = test system: MDA-MB-435
[28] = test system: MDA-N
[29] = test system: MOLT-4 leukemia
[30] = test system: NCI-H226 lung
[31] = test system: NCI-H23 lung
[32] = test system: NCI-H460 lung
[33] = test system: NCI-H522 lung
[34] = test system: NCI/ADR-RES ovarian
[35] = test system: OVCAR-3 ovarian
[36] = test system: OVCAR-4 ovarian
[37] = test system: OVCAR-5 ovarian
[38] = test system: OVCAR-8 ovarian
[39] = test system: PC-3 prostate
[40] = test system: RPMI-8226 leukemia
[41] = test system: RXF 393 renal
[42] = test system: SF-268 CNS
[43] = test system: SF-295 CNS
[44] = test system: SF-539 CNS
[45] = test system: SK-MEL-2 melanoma
[46] = test system: SK-MEL-28 melanoma
[47] = test system: SK-MEL-5 melanoma
[48] = test system: SK-OV-3 ovarian
[49] = test system: SN12C renal
[50] = test system: SNB-19 CNS
[51] = test system: SNB-75 CNS
[52] = test system: SR leukemia
[53] = test system: SW-620 colon
[54] = test system: T-47D breast
[55] = test system: TK-10 renal
[56] = test system: U251 CNS
[57] = test system: UACC-257 melanoma
[58] = test system: UACC-62 melanoma
[59] = test system: UO-31 renal

Which TGI [1] does the source give for COc1cc(C2c3cc4c(cc3OC(NNc3ccccc3)C2C)OCO4)cc(OC)c1O (centres undefined) here?
Its TGI is 15.6 µM.

And the TGI [2]?
The TGI was 16.3 µM.

What about the TGI [3] of the same compound?
The TGI was 13.3 µM.

What about the TGI [4] of the same compound?
The TGI was 10.4 µM.

What about the TGI [5] of the same compound?
Its TGI is 28 µM.

What about the TGI [6] of the same compound?
The TGI was > 92 µM.

What about the TGI [7] of the same compound?
Its TGI is 21.3 µM.

What about the TGI [8] of the same compound?
The TGI was 17.9 µM.

And the TGI [9]?
Its TGI is 17.5 µM.

And the TGI [10]?
The TGI was 69.9 µM.

What about the TGI [11] of the same compound?
Its TGI is 2.87 µM.

And the TGI [12]?
Its TGI is 13.5 µM.

And the TGI [13]?
Its TGI is 11.9 µM.

What about the TGI [14] of the same compound?
Its TGI is 5.18 µM.

And the TGI [15]?
The TGI was 33.1 µM.

What about the TGI [16] of the same compound?
Its TGI is 24.5 µM.

What about the TGI [17] of the same compound?
The TGI was 12 µM.

What about the TGI [18] of the same compound?
Its TGI is 16.7 µM.

What about the TGI [19] of the same compound?
Its TGI is 24.6 µM.

What about the TGI [20] of the same compound?
The TGI was 12.4 µM.

And the TGI [21]?
Its TGI is 12 µM.

And the TGI [22]?
Its TGI is 19 µM.

What about the TGI [23] of the same compound?
Its TGI is 13.3 µM.

And the TGI [24]?
Its TGI is 11 µM.

And the TGI [25]?
Its TGI is 13.3 µM.

What about the TGI [26] of the same compound?
Its TGI is 8.53 µM.

What about the TGI [27] of the same compound?
Its TGI is 3.96 µM.

And the TGI [28]?
Its TGI is 2.75 µM.

What about the TGI [29] of the same compound?
Its TGI is 11.2 µM.

And the TGI [30]?
Its TGI is 14.6 µM.

And the TGI [31]?
The TGI was 29.4 µM.

What about the TGI [32] of the same compound?
The TGI was 17.7 µM.

And the TGI [33]?
The TGI was 12.1 µM.

And the TGI [34]?
Its TGI is 11.1 µM.

What about the TGI [35] of the same compound?
The TGI was 14.8 µM.

And the TGI [36]?
Its TGI is 38.2 µM.

And the TGI [37]?
The TGI was 18 µM.

And the TGI [38]?
Its TGI is 23.8 µM.

What about the TGI [39] of the same compound?
The TGI was 14.9 µM.

And the TGI [40]?
The TGI was 9.78 µM.

What about the TGI [41] of the same compound?
Its TGI is 13.7 µM.

What about the TGI [42] of the same compound?
The TGI was 27.4 µM.

And the TGI [43]?
Its TGI is 11.3 µM.

What about the TGI [44] of the same compound?
The TGI was 2.98 µM.

And the TGI [45]?
Its TGI is 6.35 µM.

And the TGI [46]?
The TGI was 21.3 µM.

What about the TGI [47] of the same compound?
The TGI was 3.68 µM.

What about the TGI [48] of the same compound?
Its TGI is 22.7 µM.

What about the TGI [49] of the same compound?
The TGI was 4.63 µM.

What about the TGI [50] of the same compound?
The TGI was 32.5 µM.

And the TGI [51]?
The TGI was 7.56 µM.

And the TGI [52]?
The TGI was 29.7 µM.

What about the TGI [53] of the same compound?
Its TGI is 21 µM.

And the TGI [54]?
The TGI was 10.7 µM.

And the TGI [55]?
Its TGI is 23.6 µM.

What about the TGI [56] of the same compound?
Its TGI is 16.3 µM.

And the TGI [57]?
The TGI was 20 µM.

What about the TGI [58] of the same compound?
Its TGI is 6.03 µM.

And the TGI [59]?
Its TGI is 13.3 µM.
